The values below come from the RepoRT retention time repository (doi:10.1007/s11306-011-0298-z).

The data set is described as follows: RP, Waters ACQUITY UPLC HSS T3, 100 × 2.1 mm, 1.8 µm, 30 °C, 0.3 mL/min, estimated dead time 0.73 min; A: water + 0.1% formic acid, pH 3; B: methanol + 0.1% formic acid, pH 3; gradient (min/%B) 0/0 6/0 56/100 60/100. The settings on record: stereoisomer not certain.
Take `CC1CCC2(C(=O)O)CCC3(C)C(=CCC4C5(C)CCC(O)C(C)(C)C5CCC43C)C2C1C` (centres undefined) [ursolic acid]: the LC retention time was 53.6 min.

Take `COc1cc(C(=O)O)ccc1O` [vanillic acid]: the LC retention time is 20.3 min.

On to `COc1cc(C=O)ccc1O` [vanillin], for which the LC retention time was 21.5 min.

Take `Oc1ccc(C2Oc3cc(O)c4c(c3C2c2cc(O)cc(O)c2)C2c3c(O)cc5c(c3C(C4c3ccc(O)cc3)C2c2ccc(O)cc2)C(c2cc(O)cc(O)c2)C(c2ccc(O)cc2)O5)cc1` (stereo not drawn) [vaticanol C like isomer]: the LC retention time was 29 min.

Take `CC(=CCC1=C(C)C(=O)c2ccccc2C1=O)CCCC(C)CCCC(C)CCCC(C)C` (centres undefined) [vitamin K1]: the LC retention time was 57.7 min.

With `COc1cc(-c2oc3cc(=O)cc4oc(C(=O)O)cc(c2OC2OC(CO)C(O)C(O)C2O)c43)cc(OC)c1O` (centres undefined) [vitisin A], the LC retention time was 28.3 min.

For `COc1cc(-c2oc3cc(=O)cc4occc(c2OC2OC(CO)C(O)C(O)C2O)c43)cc(OC)c1O` (centres undefined) [vitisin B], the LC retention time was 27 min.

As to `O=c1[nH]c(=O)c2[nH]cnc2[nH]1` [xanthine], the LC retention time was 6.01 min.

`OC1COC(O)C(O)C1O` (centres undefined) [xylose]: the LC retention time was 1.4 min.
